Assay results taken from US20160030364A1, “Therapeutic Compositions and Uses Thereof” (MANUKA HEALTH NEW ZEALAND LIMITED, priority 2013, published 2016).

Tested on: human colorectal adenocarcinoma cells (DLD-1)
Assay: MTT anti-proliferative assay, DLD-1 (Examples 3-12)
Assay type: cell-based
Conditions: for % stim. / Mean OD (570 nm) / inhibition at 200 µg/mL / % inhibition: 200 μg/ml; for % stim. / Mean OD (570 nm) / % inhibition: 48 hours
Procedure: 5-phenylpenta-2,4-dienoic acid was assessed for its ability to modulate the viability and proliferation of human colorectal adenocarcinoma cells (DLD-1); human colon cancer cell line (HCT-116); human gastric carcinoma cell line (NCI-N87); and human oesophageal squamous cell carcinoma cell line (KYSE-30) as assessed by the MTT assay. The positive control, 5-fluorouracil (5-FU) was included at three concentrations; in addition to an unsupplemented cell control as a negative control in the study. The 5-phenylpenta-2,4-dienoic acid was a genuine standard with chemical structure confirmed by NMR and MS.
The four human gastrointestinal carcinoma cell lines were revived from cryostorage and cultured in the presence of the test and reference samples. An MTT assay was then performed on the cultures to determine the effect of the samples on the cell viability and proliferation.
The test sample 5-phenylpenta-2,4-dienoic acid, and all other test samples in Examples 4-12 (except tectochrysln) were Initially dissolved in pure ethanol to a concentration of around 13.35 mg/ml. Tectochrysin was initially dissolved in triethylene glycol mono-methyl ether to the same concentration. Working solutions were then prepared from the stock solutions by dilution to 15% ethanol/Hanks Balanced Salt Solution (ETOH)/HBSS to a concentration of 2 mg/mL solids. In the assay the final concentration of the samples was 200 μg/ml with a final EtOH concentration of 1.5%. Final concentrations of test compounds and propolis prepared as above are as noted in Example 3.
• 1. Human colorectal adenocarcinoma cells (ATCC CCI-221, DLD-1)(ATCC, Bethesda, Md., USA) • 2. Human gastric carcinoma cells (ATCC CRL-5822, NCI-N87)(ATCC, Bethesda, Md., USA) • 3. Human oesophageal squamous cell carcinoma (ECACC, KYSE-30)(Sigma Aldrich, Auckland, NZ) • 4. Human colon carcinoma cells (ECACC HCT-116)(Sigma Aldrich, Auckland, NZ) • 5. Penicillin-streptomycin solution: 10000 units/ml penicillin, 10 mg/ml streptomycin in 0.9% NaCl (Sigma Cat #P-0781). Stored at −20° C. • 6. For DLD-1 cells: DMEM culture medium (Invitrogen Cat #12100-046). Stored at 4° C. • 7. For NCI-N87 cells: RPMI-1640 medium modified to contain 2 mM L-glutamine, 10 mM HEPES, 1 mM sodium pyruvate, 4500 mg/L glucose, and 1500 mg/L sodium bicarbonate (Sigma R6504). Stored at 4° C. • 8. For KYSE-410 cells: RPMI-1640 medium modified to contain 2 mM L-glutamine (Sigma R6504). Stored at 4° C. • 9. For HCT-116 cells: McCoy's 5A medium modified to contain 2 mM L-glutamine (Sigma M48792). Stored at 4° C. • 10. Trypsin-EDTA solution: 0.25% Trypsin/EDTA, Invitrogen Cat#15400054 (×10 in stock). • 11. Phosphate buffered saline (PBS) (Prepared by TBL). • 12. Hanks Balanced Salt Solution (HBSS). (GIBCO Cat No. 14185-052). Stored at 4° C. • 13. Foetal Bovine Serum (GIBCO Cat #10091-148). Stored at −20° C. • 14. MTT Reagent: 100 mg/vial, (SIGMA Cat. No. M-2128) dissolved in PBS at 10 mg/ml and stored at −20° C. 5 mg/ml MTT solution will be prepared in PBS and stored at 4° C. as working solution. • 15. MTT lysis buffer: 10% sodium dodecyl sulphate (SDS)/45% Dimethyl Formamide (20 g SDS will be dissolved in 100 ml of double-distilled water (DDW), and 90 ml of Dimethyl Formamide will be added to the SDS solution). The pH will be adjusted to 4.7 by glacial acetic acid, and DDW added up to a final volume of 200 ml. • 16. 5-Fluorouracil (5-FU), (Sigma Cat. No. F-6627). Three working solutions will be prepared at 19.5 μg/ml. 6.5 μg/ml and 1.95 μg/ml dissolved in 15% Ethanol/HBSS. Final concentrations will be 1.95 μg/ml (15 μM), 0.65 μg/ml (5 μM) and 0.195 μg/ml (1.5 μM).
The medium for the propagation of the each of the cells lines is given above. Each medium was prepared following the ATCC/ECACC instructions and supplemented with penicillin-streptomycin solution (10 ml per litre). FBS (at 10%) was added just before use.
• 1. […]

Structure (SMILES)	% stim. [%]	Mean OD (570 nm)	inhibition at 200 µg/mL (Homo sapiens, DLD-1, 48 h) [%]	inhibition at 0.195 µg/mL (Homo sapiens, DLD-1, 48 h, 0.195 μg/ml) [%]	inhibition at 0.65 µg/mL (Homo sapiens, DLD-1, 48 h, 0.65 μg/ml) [%]	inhibition at 1.95 µg/mL (Homo sapiens, DLD-1, 48 h, 1.95 μg/ml) [%]	% inhibition [%]
O=C1C[C@@H](c2ccccc2)Oc2cc(O)cc(O)c21 [Pinocembrin, reference compound]	0	0.0341	91.7				
O=c1[nH]cc(F)c(=O)[nH]1 [Sample 5-FU, 5-fluorouracil, reference compound]				26.5	37.3	41.6	
COc1cc(O)c2c(=O)cc(-c3ccccc3)oc2c1 [Tectochrysin, tectochrysin]							92.8
O=C(O)/C=C/c1ccc(O)cc1 [p-coumaric acid, para-coumaric acid, reference compound]	0	0.3531	14.3				14.34
